Experimental data from patent publication US20230278972A1, “SUBSTITUTED HALOALKYL SULFONANILIDE HERBICIDES” (FMC Corporation, priority 2020, published 2023).

Assays:
Type in all cases: in vivo
[1] = tested on: blackgrass (Alopecurus myosuroides); assay: Test A postemergence, blackgrass; conditions: Postemergence, 0 to 100 scale (0 no effect, 100 complete control); for Blackgrass plant response rating: 500 g ai/ha, visual injury vs untreated controls after approx. 10 days
In short: (§1)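 Seeds are sown in loam mixed with sand and sprayed on the soil surface right after planting for the preemergence test. Postemergence pots are sprayed once seedlings reach 2 to 10 cm at the one- to two-leaf stage. The same surfactant-containing, non-phytotoxic solvent formulation serves both.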

[2] = tested on: barnyardgrass (Echinochloa crus-galli); assay: Test A preemergence, barnyardgrass; conditions: Preemergence; for Plant response rating, Barnyardgrass: 0 to 100 scale (0 no effect, 100 complete control)
In short: as §1

[3] = tested on: Foxtail, Giant (giant foxtail, Setaria faberi); assay: Test A preemergence, Foxtail, Giant; conditions: Preemergence; for Plant response rating, Foxtail, Giant: 0 to 100 scale (0 no effect, 100 complete control); for Foxtail, Giant plant response rating: visual injury on 0 to 100 scale (0 no effect, 100 complete control), approximately 10 days
In short: as §1

[4] = tested on: Ryegrass, Italian (Italian ryegrass, Lolium multiflorum); assay: Test A preemergence, Ryegrass, Italian; conditions: Preemergence; for Plant response rating, Ryegrass, Italian: 0 to 100 scale (0 no effect, 100 complete control); for Ryegrass, Italian plant response rating: visual injury on 0 to 100 scale (0 no effect, 100 complete control), approximately 10 days
In short: as §1

[5] = tested on: pigweed (Amaranthus retroflexus); assay: Test A postemergence, pigweed; conditions: Postemergence, 0 to 100 scale (0 no effect, 100 complete control); for Pigweed plant response rating: 500 g ai/ha, visual injury vs untreated controls after approx. 10 days
In short: as §1

[6] = tested on: ragweed (common ragweed, Ambrosia artemisiifolia); assay: Test A postemergence, ragweed; conditions: Postemergence, 0 to 100 scale (0 no effect, 100 complete control); for Ragweed plant response rating: 500 g ai/ha, visual injury vs untreated controls after approx. 10 days
In short: as §1

[7] = tested on: Ryegrass, Italian (Italian ryegrass, Lolium multiflorum); assay: Test A postemergence, Ryegrass, Italian; conditions: Postemergence, 0 to 100 scale (0 no effect, 100 complete control); for Ryegrass, Italian plant response rating: 500 g ai/ha, visual injury vs untreated controls after approx. 10 days
In short: as §1

[8] = tested on: wheat (Triticum aestivum); assay: Test A postemergence, wheat; conditions: Postemergence, 0 to 100 scale (0 no effect, 100 complete control); for Wheat plant response rating: 500 g ai/ha, visual injury vs untreated controls after approx. 10 days
In short: (§2)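 Barnyardgrass, wheat and galium were treated postemergence at the one- to two-leaf stage (2 to 10 cm) with chemicals formulated in non-phytotoxic solvent plus surfactant, grown in loam soil–sand pots. Pigweed was sown in the same blend and given a preemergence directed soil spray.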

[9] = tested on: Foxtail, Giant (giant foxtail, Setaria faberi); assay: Test A postemergence, Foxtail, Giant; conditions: Postemergence, 0 to 100 scale (0 no effect, 100 complete control); for Foxtail, Giant plant response rating: 500 g ai/ha, visual injury vs untreated controls after approx. 10 days
In short: as §1

corn (Zea mays) = assay: Test A postemergence, corn; conditions: Postemergence, 0 to 100 scale (0 no effect, 100 complete control); for Corn plant response rating: 500 g ai/ha, visual injury vs untreated controls after approx. 10 days
In short: as §1

kochia (Bassia scoparia) [10] = assay: Test A preemergence, kochia; conditions: Preemergence; for Plant response rating, Kochia: 0 to 100 scale (0 no effect, 100 complete control); for Kochia plant response rating: visual injury on 0 to 100 scale (0 no effect, 100 complete control), approximately 10 days
In short: as §1

[11] = tested on: ragweed (common ragweed, Ambrosia artemisiifolia); assay: Test A preemergence, ragweed; conditions: Preemergence; for Plant response rating, Ragweed: 0 to 100 scale (0 no effect, 100 complete control); for Ragweed plant response rating: visual injury on 0 to 100 scale (0 no effect, 100 complete control), approximately 10 days
In short: as §1

[12] = tested on: galium (catchweed bedstraw, Galium aparine); assay: Test A postemergence, galium; conditions: Postemergence, 0 to 100 scale (0 no effect, 100 complete control); for Galium plant response rating: 500 g ai/ha, visual injury vs untreated controls after approx. 10 days
In short: as §2

kochia (Bassia scoparia) [13] = assay: Test A postemergence, kochia; conditions: Postemergence, 0 to 100 scale (0 no effect, 100 complete control); for Kochia plant response rating: 500 g ai/ha, visual injury vs untreated controls after approx. 10 days
In short: as §1

[14] = tested on: barnyardgrass (Echinochloa crus-galli); assay: Test A postemergence, barnyardgrass; conditions: Postemergence, 0 to 100 scale (0 no effect, 100 complete control); for Barnyardgrass plant response rating: 500 g ai/ha, visual injury vs untreated controls after approx. 10 days
In short: as §2

[15] = tested on: pigweed (Amaranthus retroflexus); assay: Test A preemergence, pigweed; conditions: for Plant response rating, Pigweed: 0 to 100 scale (0 no effect, 100 complete control); for Pigweed plant response rating: visual injury on 0 to 100 scale (0 no effect, 100 complete control), approximately 10 days
In short: as §2

[16] = 125 g ai/ha, visual injury, approx. 10 days
[17] = 125 g ai/ha, visual injury approx. 10 days
[18] = 1000 g ai/ha, visual injury, approx. 10 days

## Cc1cc(F)c(C(=O)N2CCCCC2)cc1N(S(=O)(=O)C(F)(F)F)S(=O)(=O)C(F)(F)F [Compound 212]
[1]; 125 g ai/ha
  Plant response rating, Blackgrass: 0
[1]
  Blackgrass plant response rating: 0
[2]; [16]
  Plant response rating, Barnyardgrass: 0
[2]; 500 g ai/ha
  Plant response rating, Barnyardgrass: 90
[3]; [16]
  Plant response rating, Foxtail, Giant: 20
[3]; 500 g ai/ha
  Plant response rating, Foxtail, Giant: 90
[4]; [16]
  Plant response rating, Ryegrass, Italian: 30
[4]; 500 g ai/ha
  Plant response rating, Ryegrass, Italian: 70
[5]; 125 g ai/ha
  Plant response rating, Pigweed: 20
[5]
  Pigweed plant response rating: 60
[6]; 125 g ai/ha
  Plant response rating, Ragweed: 20
[6]
  Ragweed plant response rating: 20
[7]; 125 g ai/ha
  Plant response rating, Ryegrass, Italian: 0
[7]
  Ryegrass, Italian plant response rating: 50
[8]; 125 g ai/ha
  Plant response rating, Wheat: 0
[8]
  Wheat plant response rating: 0
[9]; 125 g ai/ha
  Plant response rating, Foxtail, Giant: 0
[9]
  Foxtail, Giant plant response rating: 20
Corn (Zea mays); 125 g ai/ha
  Plant response rating, Corn: 0
Corn (Zea mays)
  Corn plant response rating: 10
Kochia (Bassia scoparia) [10]; [16]
  Plant response rating, Kochia: 30
Kochia (Bassia scoparia) [10]; 500 g ai/ha
  Plant response rating, Kochia: 90
[11]; [16]
  Plant response rating, Ragweed: 0
[11]; 500 g ai/ha
  Plant response rating, Ragweed: 30
[12]; 125 g ai/ha
  Plant response rating, Galium: 50
[12]
  Galium plant response rating: 70
Kochia (Bassia scoparia) [13]; 125 g ai/ha
  Plant response rating, Kochia: 20
Kochia (Bassia scoparia) [13]
  Kochia plant response rating: 70
[14]; 125 g ai/ha
  Plant response rating, Barnyardgrass: 0
[14]
  Barnyardgrass plant response rating: 0
[15]; [16]
  Plant response rating, Pigweed: 90
[15]; 500 g ai/ha
  Plant response rating, Pigweed: 90

## Cc1cc(C)c(C(=O)N2CCC(CC(F)(F)F)CC2)cc1NS(=O)(=O)C(F)(F)F [Compound 234]
[1]; 125 g ai/ha
  Plant response rating, Blackgrass: 0
[1]
  Blackgrass plant response rating: 0
[2]; [16]
  Plant response rating, Barnyardgrass: 80
[2]; 500 g ai/ha
  Plant response rating, Barnyardgrass: 80
[3]; [16]
  Plant response rating, Foxtail, Giant: 50
[3]; 500 g ai/ha
  Foxtail, Giant plant response rating: 50
[4]; [16]
  Plant response rating, Ryegrass, Italian: 20
[4]; 500 g ai/ha
  Ryegrass, Italian plant response rating: 50
[5]; 125 g ai/ha
  Plant response rating, Pigweed: 30
[5]
  Pigweed plant response rating: 60
[6]; 125 g ai/ha
  Plant response rating, Ragweed: 30
[6]
  Ragweed plant response rating: 50
[7]; 125 g ai/ha
  Plant response rating, Ryegrass, Italian: 0
[7]
  Ryegrass, Italian plant response rating: 0
[8]; 125 g ai/ha
  Plant response rating, Wheat: 0
[8]
  Wheat plant response rating: 0
[9]; 125 g ai/ha
  Plant response rating, Foxtail, Giant: 0
[9]
  Foxtail, Giant plant response rating: 50
Corn (Zea mays); 125 g ai/ha
  Plant response rating, Corn: 0
Corn (Zea mays)
  Corn plant response rating: 0
Kochia (Bassia scoparia) [10]; [16]
  Plant response rating, Kochia: 0
Kochia (Bassia scoparia) [10]; 500 g ai/ha
  Kochia plant response rating: 30
[11]; [16]
  Plant response rating, Ragweed: 80
[11]; 500 g ai/ha
  Ragweed plant response rating: 90
[12]; 125 g ai/ha
  Plant response rating, Galium: 10
[12]
  Galium plant response rating: 80
Kochia (Bassia scoparia) [13]; 125 g ai/ha
  Plant response rating, Kochia: 0
Kochia (Bassia scoparia) [13]
  Kochia plant response rating: 0
[14]; 125 g ai/ha
  Plant response rating, Barnyardgrass: 60
[14]
  Barnyardgrass plant response rating: 70
[15]; [16]
  Plant response rating, Pigweed: 50
[15]; 500 g ai/ha
  Pigweed plant response rating: 100

## CCn1nc(C)cc(-c2cc(N(S(=O)(=O)C(F)(F)F)S(=O)(=O)C(F)(F)F)c(C)cc2C)c1=O [Compound 52]
[1]; [17]
  Plant response rating, Blackgrass: 0
[1]
  Blackgrass plant response rating: 80
[2]; 125 g ai/ha, visual injury on 0 to 100 scale (0 no effect, 100 complete control), approximately 10 days
  Barnyardgrass plant response rating: 100
[2]; 500 g ai/ha
  Plant response rating, Barnyardgrass: 100
[3]; 125 g ai/ha
  Foxtail, Giant plant response rating: 100
[3]; 500 g ai/ha
  Plant response rating, Foxtail, Giant: 100
[4]; 125 g ai/ha
  Ryegrass, Italian plant response rating: 90
[4]; 500 g ai/ha
  Plant response rating, Ryegrass, Italian: 90
[5]; [17]
  Plant response rating, Pigweed: 30
[5]
  Pigweed plant response rating: 50
[6]; [17]
  Plant response rating, Ragweed: 30
[6]
  Ragweed plant response rating: 60
[7]; [17]
  Plant response rating, Ryegrass, Italian: 20
[7]
  Ryegrass, Italian plant response rating: 40
[8]; [17]
  Plant response rating, Wheat: 60
[8]
  Wheat plant response rating: 70
[9]; [17]
  Plant response rating, Foxtail, Giant: 0
[9]
  Foxtail, Giant plant response rating: 80
Corn (Zea mays); [17]
  Plant response rating, Corn: 0
Corn (Zea mays)
  Corn plant response rating: 0
Kochia (Bassia scoparia) [10]; 125 g ai/ha
  Kochia plant response rating: 70
Kochia (Bassia scoparia) [10]; 500 g ai/ha
  Plant response rating, Kochia: 90
[11]; 125 g ai/ha
  Ragweed plant response rating: 10
[11]; 500 g ai/ha
  Plant response rating, Ragweed: 60
[12]; [17]
  Plant response rating, Galium: 60
[12]
  Galium plant response rating: 80
Kochia (Bassia scoparia) [13]; [17]
  Plant response rating, Kochia: 30
Kochia (Bassia scoparia) [13]
  Kochia plant response rating: 80
[14]; [17]
  Plant response rating, Barnyardgrass: 0
[14]
  Barnyardgrass plant response rating: 80
[15]; 125 g ai/ha
  Pigweed plant response rating: 50
[15]; 500 g ai/ha
  Plant response rating, Pigweed: 90

## Cc1cc(C)c(C(=O)N2CCC(C)CC2)cc1NS(=O)(=O)C(F)(F)F [Compound 264]
[1]; [18]
  Plant response rating, Blackgrass: 60
[2]; 1000 g ai/ha
  Plant response rating, Barnyardgrass: 100
[3]; 1000 g ai/ha
  Plant response rating, Foxtail, Giant: 100
[4]; 1000 g ai/ha
  Plant response rating, Ryegrass, Italian: 100
[5]; [18]
  Plant response rating, Pigweed: 60
[6]; [18]
  Plant response rating, Ragweed: 60
[7]; [18]
  Plant response rating, Ryegrass, Italian: 50
[8]; [18]
  Plant response rating, Wheat: 70
[9]; [18]
  Plant response rating, Foxtail, Giant: 40
Corn (Zea mays); [18]
  Plant response rating, Corn: 20
Kochia (Bassia scoparia) [10]; 1000 g ai/ha
  Plant response rating, Kochia: 70
[11]; 1000 g ai/ha
  Plant response rating, Ragweed: 90
[12]; [18]
  Plant response rating, Galium: 70
Kochia (Bassia scoparia) [13]; [18]
  Plant response rating, Kochia: 20
[14]; [18]
  Plant response rating, Barnyardgrass: 50
[15]; 1000 g ai/ha
  Plant response rating, Pigweed: 80
